Test results taken from patent publication US20100151452A1, “Methods and Systems for Searching for Regulators of the Fer Protein and for Monitoring the Effects of the Fer Protein” (priority 2006, published 2010).

System: CDK2
Test: Western blot of CDK2 level
Format: cell-based, human
Conditions: PC3 cells, simultaneous exposure to fer-siRNA and cycloheximide 10 μg/ml 4 h
Description: For treatment with cycloheximide, PC3 cells transfected with siRNA for 72 h, were subjected to 10 μg/ml cycloheximide for additional 4 h, at the end of the transfection process.
Whole cell lysates (WCL) were prepared as described before (Salem et al., 2005). For Western blot analysis, 20-30 μg proteins from each sample were resolved in 7-12% SDS-PAGE. Electroblotted proteins were detected using specific anti-Fer antibodies (Priel-Halachmi et al., 2000), anti-CDK2 (sc-6248, Santa Cruz), anti-CDK1 (sc-54, Santa Cruz), anti-CDK4 (610148, BD Biosciences), anti-CDK6 (554086, BD Biosciences), anti-CDK7 (sc-856, Santa Cruz), anti-cyclin A (sc-751, Santa Cruz), anti-cyclin D1 (sc-6281, Santa Cruz), anti-cyclin E (sc-247, Santa Cruz), anti-cyclin H (sc-1662, Santa Cruz), anti-pRB (sc-102, Santa Cruz), anti-phosphosthreonine^821-pRB (pThr821) (44-582, Biosource), anti-phosphoserine^795-pRB (pSer795) (sc-7986-R, Santa Cruz), anti-phosphoserine^780-pRB (pSer780) (9307, Cell Signaling), anti-phosphoserine^807/811-pRB (pSer807/811) (9308, Cell Signaling), anti-PP1α (2582, Cell Signaling), anti-PP1 (sc-443, Santa Cruz), anti-phosphothreonine^320-PP1α (pThr320) (2581, Cell Signaling), anti-p21Cip1 (sc-6246, Santa Cruz), anti-p27Kip1 (sc-528, Santa Cruz), anti-HA (NMS-101R, Covance), anti-Myc (13-2500, Zymed), and anti-Actin antibody (A 4700, Sigma). […]

`C[C@@H]1C[C@@H]([C@H](O)CC2CC(=O)NC(=O)C2)C(=O)[C@@H](C)C1` [cycloheximide] was tested, and the “effect on the fer-siRNA induced decrease of the level of CDK2” value was “alleviated this effect”.
